Measured values as given in patent US20100041632A1, “USES OF THE CARBOXY-AMIDO-TRIAZOLE COMPOUNDS AND SALTS THEREOF” (priority 2006, published 2010).

Columns and labels:
[1] = tested on: Kunming mice; experiment: Effect of CAI on drug addiction caused by morphine (naloxone-induced jumping)
Procedure: 160 Kunming mice (18-22 g, half male and half female) were divided into 4 groups randomly, with 40 mice per group:
Control group with solvent, PEG400/N.S. (10 μl/g/day PEG400, (ig), 4 days);
Group treated with CAI, CAI/N.S. (CAI is resolved in PEG400 to reach a final concentration of […], 20 mg CAI/kg/day was administered (ig) for 4 days, N.S. was taken according to morphine administration in table 1);
Group treated with morphine, PEG400/morphine (10 μl/g/day PEG400 was administered (ig) for 4 days, morphine was administered according to the table below);
4 hours after the morphine administration on the fifth day, animals of each group was injected (ip) with 1 mg/kg naloxone and then put into a tank (5000 ml) immediately. The jump frequency in 30 minutes was recorded. Two-factor analysis of variance by SPSS was performed to analyse the experiment results.

[2] = tested on: Kunming mice; experiment: Formalin test (analgesic effect); format: in vivo
Procedure: 320 Kunming mice (18-22 g, half male and half female) were divided into 4 groups randomly with 80 animals in each group.
Control group with dissolvent (PEG400/N.S.): 10 μl PEG400 was administered (ig) twice with the interval of 24 hours. The pain intensity test was carried out 8 hours after the second administration. 200 μl N.S. is injected (sc) 5 minutes before the test.
(§1) Morphine/PEG400 group: 10 μl PEG400 was administered (ig) twice with the interval of 24 hours. The pain intensity test was carried out 8 hours after the second administration. Morphine (2 mg/kg body weight) was injected (sc) 5 minutes before the test.
(§2) CAI/N.S. group: CAI (20 mg/kg body weight, 2 mg/ml) was administered (ig) twice with the interval of 24 hours. The pain intensity test was carried out 8 hours after the second administration. 200 μl N.S. was injected (sc) 5 minutes before the test.
(§3) The pain intensity test was carried out 8 hours after the second administration. Morphine (2 mg/kg body weight) was injected (sc) 5 minutes before the test.
5 minutes after the morphine or N.S. injection, 20 μl 2% formalin was injected (sc) into the subplantar space of the hind paw. The animals were placed immediately in a glass cylinder hanging on a holder, with a mirror placed below with 30° slope to observe the paw responses. The pain responses of the animals with injected paws were recorded; a pain ranking was recorded as follows: 3=the injected paw is licked, bitten, or shaken; 2=the injected paw is elevated and is not in contact with any other surface; 1=the injected paw has little or no weight on it; 0=the injected paw is not favored. The duration of each of the 4 behavioral categories was recorded. The observation lasted for 15 minutes. A pain intensity score was calculated by multiplying the amount of time spent in each category by its assigned category score and adding these products together.

[3] = tested on: Kunming mice; experiment: Hot plate test (analgesic effect); format: in vivo
Procedure: Kunming mice (18-22 g, female) were randomly divided into 4 groups with 20 animals per group.
(§4) Control group with dissolvent: 10 μl PEG400 was administered (ig) twice with the interval of 24 hours. The pain intensity test was carried out 8 hours after the second administration. 200 μl N.S. was injected (sc) 5 minutes before the test.
as §1, §2, §3
The mice were placed onto a hot plate (53±0.5° C.) and the latency periods (second) of hopping responses were recorded as the pain threshold index.

[4] = tested on: Kunming mice; experiment: Radiant heat test (tail-flick); format: in vivo
Procedure: The radiant heat dolorimeter (Collumbus Instruments) is used in this model with the tail-flick mode and the exposure rate of 20. The latency periods (TFL) starting from the beginning of exposure to the tail-flick responses were recorded as the pain threshold. The exposure time lasted for 16 seconds.
Kunming mice (18-22 g, male) are tested for the basic pain threshold before the test with drug administration, and those with pain threshold longer than 16 seconds are excluded. The selected mice are divided into 4 groups with 15 animals per group.
as §4, §1, §2
The pain intensity test was carried out 8 hours after the second administration, morphine (2 mg/kg body weight) was injected (sc) 5 minutes before the test.
The pain threshold of each mouse was tested before and after morphine or N.S. injection. The values after drug administration minus those before drug administration were considered to be the changing index of pain threshold.

[5] = tested on: TNF-α; experiment: TNF-α levels in paw tissue and serum of adjuvant arthritis rat (ELISA); format: in vivo; conditions: administered in combination with CAI
Procedure: (§5) Blood was collected from eve socket on day 29 and left in room temperature to allow coagulating. Then serum was separated by centrifugation at 3000 rpm for 10 min and kept in −20° C. After animals were sacrificed, the subcutaneous tissue of the right hind paw and that surrounding the tarsotibial joints was removed, broke into pieces, and placed in 5 ml normal saline (0.9%). The tissues were homogenized in a high speed homogenizer. Then the homogenate was centrifuged at 4° C. and 10,000 rpm for 15 min. The supernatants were collected and stored at −20° C. until further analysis.
(§6) IL-1β and TNF-α levels in paw tissue and serum were measured using specific rat ELISA kits according to the manufacturer's instructions.

[6] = tested on: IL-1β; experiment: IL-1β levels in paw tissue and serum of adjuvant arthritis rat (ELISA); format: in vivo; conditions: administered in combination with CAI
Procedure: as §5, with “The adjuvant arthritis rat was prepared as described in example 8. Treatment was performed as described in example 8. Blood” for “Blood”
as §6

[7] = tested on: Kunming mice; experiment: Croton oil-induced ear edema mouse model; format: in vivo; conditions: ear weight difference 4 hours after 2% croton oil; CAI/analogs 2 mg/ml ig, dexamethasone 0.2 mg/ml ip, 0.1 ml/10 g/day, 3 days
Procedure: Male Kunming mice, weighted 18-22 g, were randomly divided to the following experiment groups, 20 mice/group:
Negative control: normal saline was injected (ig), 0.1 ml/10 g/day for 3 consecutive days.
Vehicle control: PEG400 was injected (ig), […] for 3 consecutive days.
Positive control: Dexamethasone (0.2 mg/ml) was injected (ip), 0.1 ml/10 g/day for 3 consecutive days.
Test group: CAI or its analogs (2 mg/ml, analogs are as described in example 5) was administered (ig), 0.1 ml/10 g/day for 3 consecutive days.
8 hours after the last administration, 20 μl of croton oil solution (2%) was applied to the right ear of each mouse. The left ear remained untreated as control. The animals were sacrificed 4 hours later, and a piece of tissue was punched from the same position of the treated and untreated ear. The tissues were weighed on a 0.1 mg balance. The difference in weight between the two pieces of tissue of each mouse was taken as a measure of swelling intensity.

[8] = tested on: rats; experiment: Granulomatous tissue formation (implanted tampon); format: in vivo; conditions: 7 days; CAI 20 mg/kg/day p.o.; dexamethasone 0.067 mg/kg/day i.p.
Procedure: 44 rats (160 g) were randomly divided into 4 groups (11 rats/group). Animals were slightly anaesthetized by ether. After sterilization, the groin was cut bilaterally. A sterile tampon (50 mg) was implanted (sc). On the same day, the following treatments were administered: N.S. (i.p., control group), 0.067 mg/kg/day dexamethasone (i.p., positive control), 20 mg/kg/day CAI (p.o., dissolved in PEG 400, test group) and 0.067 mg/kg/day dexamethasone+20 mg/kg/day CAI (p.o., dissolved in PEG 400, combination group). After 7 days administration, the animals were sacrificed. The cotton was removed. The granulomatous tissue was dried at 60° C. oven for 12 hr and weighed. Increment in the dry weight of the tissue was taken as measure of granuloma formation. The Increment was adjusted for respective body weight, and the mean value for each group was calculated.

[9] = tested on: Wistar rats; experiment: Adjuvant induced arthritis (AA) of rat, paw oedema; format: in vivo
Procedure: Negative control (AA+NS): […] positive control (AA+Dex): dexamethasone, i.p., 0.067 mg/kg/day. Vehicle control (AA+PEG400): […] CAI (AA+CAI): 20 mg/ml CAI, ig, 0.1 ml/100 g/day (20 mg/kg/day). Combination (AA+CAI+Dex): dexamethasone, 0.067 mg/kg/day (i.p.) plus CAI 20 mg/kg/day (p.o.). Normal volumes of left and right hind paw were measured before adjuvant injection. […]

## CN1CC[C@]23c4c5ccc(O)c4O[C@H]2[C@@H](O)C=C[C@H]3[C@H]1C5 [morphine, reference compound]
[1]; jump frequency in 30 minutes after naloxone 1 mg/kg ip, CAI 20 mg/kg/day ig 4 days, morphine per Table 1, mean ± std
  Mean number of jump: 41 ± 58
[1]; naloxone-induced jumping, two-factor ANOVA vs PEG400/N.S.
  Addiction / withdrawal syndrome (in words): causes obvious withdrawal syndrome
[2]; 2% formalin sc hind paw, 15 minutes observation, CAI 20 mg/kg ig twice, morphine 2 mg/kg sc
  Pain intensity score (mean ± std): 756 ± 441
[2]; pain scores compared with the control group
  Analgesic effect in formalin test (in words): decrease significantly
[3]; hot plate 53±0.5° C., latency of hopping response, CAI 20 mg/kg ig twice, morphine 2 mg/kg sc
  Pain threshold (sec, mean ± std): 31.9 ± 12.1 s
[3]; two-factor ANOVA
  Analgesic effect in hot plate test (in words): extends the pain response time very significantly
[4]; compared with the control group
  Analgesic effect in radiant heat test (in words): extended the pain threshold time very significantly
[4]; tail-flick latency after minus before drug, CAI 20 mg/kg ig twice, morphine 2 mg/kg sc
  Pain threshold change (seconds, mean ± std): 6.95 ± 5.69 s

## CC(=O)O.NC(=O)c1nnn(Cc2cc(Cl)c(C(=O)c3ccc(Cl)cc3)c(Cl)c2)c1N [CAI acetate]
[5]
  Inhibitory effect on serum levels of TNF-α (in words): obvious and even more pronounced
[6]
  Inhibitory effect on serum levels of IL-1β (in words): obvious and even more pronounced

## C[C@@H]1C[C@H]2[C@@H]3CCC4=CC(=O)C=C[C@]4(C)[C@@]3(F)[C@@H](O)C[C@]2(C)[C@@]1(O)C(=O)CO [dexamethasone, reference compound]
[7]
  Swelling intensity (mg) mean ± std: 1.5 ± 0.4 mg
[8]
  granulomatous tissue:bady weight ratio (mean ± std): 0.064 ± 0.00495
[9]; 1 d, CAI 20 mg/kg/day ig, Dex 0.067 mg/kg/day i.p.
  Primary paw oedema (%), mean ± std: 111.3 ± 13.6 %
[9]; 2 d
  Primary paw oedema (%), mean ± std: 121.9 ± 16.0 %
[9]; 5 d
  Primary paw oedema (%), mean ± std: 107.4 ± 12.5 %
[9]; 8 d
  Primary paw oedema (%), mean ± std: 103.6 ± 14.0 %
[9]; 11 d
  Primary paw oedema (%), mean ± std: 100.3 ± 21.0 %
[9]; 14 d
  Primary paw oedema (%), mean ± std: 100.0 ± 11.3 %
[9]; 14 d, right hind paw
  Secondary paw oedema (%), mean ± std: 1.1 ± 1.0 %
[9]; 17 d
  Primary paw oedema (%), mean ± std: 95.3 ± 15.7 %
  Secondary paw oedema (%), mean ± std: 1.9 ± 1.4 %
[9]; 20 d
  Primary paw oedema (%), mean ± std: 83.9 ± 24.0 %
  Secondary paw oedema (%), mean ± std: 2.8 ± 0.9 %
[9]; 23 d
  Primary paw oedema (%), mean ± std: 80.4 ± 17.8 %
  Secondary paw oedema (%), mean ± std: 4.6 ± 1.4 %
[9]; 26 d
  Primary paw oedema (%), mean ± std: 78.6 ± 23.1 %
  Secondary paw oedema (%), mean ± std: 3.6 ± 1.7 %
[9]; 29 d
  Primary paw oedema (%), mean ± std: 73.9 ± 18.0 %
  Secondary paw oedema (%), mean ± std: 2.5 ± 1.7 %

## Cl.NC(=O)c1nnn(Cc2cc(Cl)c(C(=O)c3ccc(Cl)cc3)c(Cl)c2)c1N [CAI hydrochlorate]
[5]
  Inhibitory effect on serum levels of TNF-α (in words): obvious and even more pronounced
[6]
  Inhibitory effect on serum levels of IL-1β (in words): obvious and even more pronounced
